This note sets out measurements from patent publication US4772602A, “N-substituted 3,4-dihydropyrimidine derivatives as agents for treating disorders of cardiovascular system” (Suntory Limited, priority 1985, dated 1988).

The subject of one data set is vertebral artery. Description: vascular resistance of the vertebral artery in anesthetized dogs (ED30). The class given is in vivo, dog. As to conditions: Canis lupus familiaris, intravenous injection. The procedure:
The pharmacological effect (ED30) of the compounds of the present invention with respect to the vascular resistance of the vertebral artery in anesthetized dogs was treated by the following procedure.
Adult dogs of either sex (7-14 kg in body weight) were anesthetized with at first thiopental sodium (35 mg/kg, intraperitoneal), anesthetized with urethane (400 mg/kg, intravenous) and chloralose (60 mg/kg, intravenous) and kept under artificial respiration throughout the experiment. After thoracotomy at the left first intercostal space, the vertebral artery was exposed and blood flow was measured with intracorporeal flow probe connected to an electromagnetic flowmeter (MF-27, Nihon Kohden).
At the same time, continuous measurement of the following parameters was made: systemic blood pressure (mean pressure) at the right femoral artery, the limb lead II ECG, the heart rate with a tachometer triggered by the R wave of ECG, and the vascular resistance determined by loading a electronic divider unit (EO-601 G, Nihon Kohden) with the mean values of blood pressure and vertebral artery blood flow. All of these parameters were recorded simultaneously on a polygraph (RM-600, Nihon Kohden).
All the test compounds were injected through a cannula inserted into the femoral vein.
The ED30 (μg/kg) values obtained by intravenous injection are listed in Table 4, wherein the Compound Numbers are keyed to the Example Numbers.

The test system of data set [1] is isolated guinea pig hearts (coronary artery). Description: coronary vascular dilative effect in isolated guinea pig hearts (Langendorff's method). The arrangement: species or system guinea pig (Heartley). The conditions noted are these: 37° C., 0.1 ml administered into the coronary artery. The procedure: The coronary vascular dilative effect of 3N-substituted 3,4-dihydropyrimidine derivatives was tested.
Heartley guinea pigs (weight 400-500 g) were killed by a blow on the head and their hearts were immediately isolated. The hearts were perfused with Krebs-Henseleit solution bubbled with a mixture of 95% O2 +5% CO2 and maintained at 37° C. at a constant rate of 6 ml/minute according to the Langendorff's method [J. Pharmacol. Methods 2, 143 (1979)]. The perfusion pressure was measured by a pressure transducer continuously. Samples were prepared by emulsifying 1 mg of a test compound in 1 ml of a mixture of dimethylsulfoxide and physiological saline solution (1:9) and diluting with physiological saline solution to the predetermined concentration. 0.1 ml of the diluted solution was administered into the coronary artery via a rubber tube connected to an aorta cannula to obtain ED50 (μg/heart) data as shown in Table 3. The numbers of the compounds in the Table correspond respectively to those of the working examples described above.

Data set [2] concerns conscious spontaneously hypertensive rats (SHR). Description: hypotensive action in conscious spontaneously hypertensive rats (SHR). The class given is in vivo, rat (SHR). The conditions noted are these: 10 mg/kg orally. The procedure:
A selected compound of the present invention was tested for its hypotensive action in conscious spontaneously hypertensive rats (SHR).
A group of 17 to 20-week old male SHR were anesthetized with ether and a cannula was inserted into the left femoral artery. At least one day after the operation, the cannula was connected to a pressure transducer and the blood pressure was measured continuously under conscious and unrestrained condition, thereby obtaining the data shown in Table 6. The test compound as clear solution dissolved in 10% ethanol was administered orally at a dose of 10 mg/kg (body weight) to each animal fasted overnight.

Data set [3] in a line: acute toxicity (LD50), Litchfield-Wilcoxon method. On the set-up: species or system mouse (male ddY). The conditions noted are these: mouse, in vivo, emulsion in 10% dimethyl sulfoxide. The procedure:
The acute toxicity (LD50) data of compound No. 28 of the present invention as administered to two groups of 5 or 6-week old male ddY mice were obtained by the Litchfield-Wilcoxon method. One group of mice was fasted overnight prior to oral administration. To each group of mice, the test compound was administered in the form of emulsion in 10% dimethyl sulfoxide.

By LD50 is commonly meant the dose at which mortality reaches 50%.

Like-named read-outs stand apart in the source and are kept apart here.

Take `CCOC(=O)C1=C(C)N=C(C)N(C(=O)OCCN(C)Cc2ccccc2)C1c1ccccc1[N+](=O)[O-]` (stereo not drawn) [Compound 3]: in the data set with vertebral artery, the ED30 came to 0.00075 mg/kg. Also, the “ED50 (coronary vascular dilative effect)” value in data set [1] is reported as 0.0095 μg/heart.
Consider `CC1=NC(C)=C(C(=O)OCC2CC2)C(c2ccccc2[N+](=O)[O-])N1C(=O)OCCN(C)Cc1ccccc1` (stereo not drawn) [Compound 1, 3-{2-(N-benzyl-N-methylamino)ethoxycarbonyl}-5-cyclopropylmethoxycarbonyl-2,6-dimethyl-4-(2-nitrophenyl)-3,4-dihydropyrimidine], for which the ED30 in the data set on vertebral artery was determined as 0.00058 mg/kg. Also, the “ED50 (coronary vascular dilative effect)” value in data set [1] was 0.013 μg/heart.
The molecule `CC1=NC(C)=C(C(=O)OCC2CC2)C(c2ccccc2[N+](=O)[O-])N1C(=O)OCCCCCN(C)Cc1ccccc1` (stereo not drawn) [Compound 9] showed an ED30 in the data set on vertebral artery of 0.0039 mg/kg. In addition, the “ED50 (coronary vascular dilative effect)” value in data set [1] was determined as 0.10 μg/heart.
The molecule `CC1=NC(C)=C(C(=O)OCC2CC2)C(c2ccccc2[N+](=O)[O-])N1C(=O)OCCN(C)Cc1ccc(F)cc1` (stereo not drawn) [Compound 11] yielded an ED30 in the data set on vertebral artery of 0.00055 mg/kg. Moreover, the “ED50 (coronary vascular dilative effect)” value in data set [1] came to 0.030 μg/heart.
In turn, `CC1=NC(C)=C(C(=O)OCC2CC2)C(c2ccccc2[N+](=O)[O-])N1C(=O)OCCN1CCc2ccccc2C1` (stereo not drawn) [Compound 21] gave an ED30 with vertebral artery of 0.002 mg/kg. The “ED50 (coronary vascular dilative effect)” value in data set [1] was 0.45 μg/heart.
As for `COc1ccc(CN(C)CCOC(=O)N2C(C)=NC(C)=C(C(=O)OCC3CC3)C2c2ccccc2[N+](=O)[O-])cc1` (stereo not drawn) [Compound 5], the ED30 with vertebral artery was 0.0024 mg/kg. Also, the “ED50 (coronary vascular dilative effect)” value in data set [1] is listed as 0.036 μg/heart.
On to `CC1=NC(C)=C(C(=O)OCC2CC2)C(c2ccccc2[N+](=O)[O-])N1C(=O)OCCN(CCCc1ccccc1)Cc1ccccc1` (stereo not drawn) [Compound 28, 3-[2-{N-benzyl-N-(3-phenylpropyl)amino}ethoxycarbonyl]-5-cyclopropylmethoxycarbonyl-2,6-dimethyl-4-(2-nitrophenyl)-3,4-dihydropyrimidine], for which, in data set [2], the “time of maximum blood pressure decrease” value turned out to be 2 h. Besides, the “Blood pressure decrease, 6 hours” value in data set [2] (6 hours) was 10-20%. The “Blood pressure decrease, maximum decrease” value in data set [2] (in 2 hrs) is recorded as 35%. The 50% lethal dose (LD50) is above 1000 mg/kg in data set [3] (male ddY mice fasted overnight, oral, read-out: LD50 oral) and 180 to 200 mg/kg in data set [3] (male ddY mice, intravenous, read-out: LD50 intravenous). Also, in the data set with vertebral artery, the ED30 was 0.0042 mg/kg.
Molecule `CC1=NC(C)=C(C(=O)OCC2CC2)C(c2ccccc2[N+](=O)[O-])N1C(=O)OCCN(C)Cc1ccccc1Cl` (stereo not drawn) [Compound 6] yielded an ED30 in the data set with vertebral artery of 0.0014 mg/kg. For the same molecule, the “ED50 (coronary vascular dilative effect)” value in data set [1] is 0.0092 μg/heart.
The molecule `CC1=NC(C)=C(C(=O)OCC2CC2)C(c2ccccc2[N+](=O)[O-])N1C(=O)OCCN(C)Cc1ccc([N+](=O)[O-])cc1` (stereo not drawn) [Compound 7] yielded an ED30 in the data set with vertebral artery of 0.00071 mg/kg. In addition, the “ED50 (coronary vascular dilative effect)” value in data set [1] is listed as 0.0012 μg/heart.
In the same order, the values of `CC1=NC(C)=C(C(=O)OC(C)C)C(c2ccccc2[N+](=O)[O-])N1C(=O)OCCN(C)Cc1ccccc1` (stereo not drawn) [Compound 10] are 0.00054 mg/kg and 0.060 μg/heart.
